Data: US11690887B2, “Composition for ameliorating psoriasis symptoms containing extract of Dianthus superbus L” (KOREA INSTITUTE OF SCIENCE AND TECHNOLOGY, priority 2020, dated 2023)

What was measured:
[1] = test system: psoriasis caused by imiquimod; test: Epithelial thickness of back skin by H&E staining in imiquimod-induced psoriasis mice; assay type: in vivo, Balb/c mice; conditions: after treatment for a week, skin application, compared to the IMQ group
Text: (§1) 6-week-old male Balb/c mice (Kangwon Life Science, Korea) were purchased and acclimated for a week, and psoriasis was induced using 5% imiquimod (Donga ST, Korea). FIG. 1 is a schematic experimental scheme of an animal model. Anti-psoriatic efficacy was investigated using a total of 20 animal models including 5 animals per experimental group.
(§2) In order to determine the effect of the extract of Dianthus superbus L. on psoriasis caused by imiquimod, the experimental animals of Section 2-1 were used. The following four experimental groups were constructed and five animals were randomly assigned to each group:
(§3) The experiment was conducted by inducing psoriasis with IMQ cream and then performing daily application in the amount shown in FIG. 2 to the experimental group and the DEX group. FIG. 3 is an image showing the treatment group for 7 days compared to the psoriasis-induced model as the animal experimental model.
After treatment for a week, the back skin tissue was removed from each animal, and then a paraffin block was prepared. The paraffin block was cut to 5 μm to prepare a slide sample, and then the change in the thickness of the skin tissue was measured through H&E staining.

[2] = test system: filaggrin, loricrin, keratin 1 and keratin 14; test: Biomarkers for epithelial tissue damage in back skin by immunofluorescence in imiquimod-induced psoriasis mice; assay type: in vivo, Balb/c mice; conditions: after treatment for a week, versus IMQ group
Text: as §1, §2, §3
After treatment for a week, back skin tissue was removed from each animal and a paraffin block was then prepared. A paraffin block was cut to 5 μm to prepare a slide sample, and then the change in biomarkers for epithelial tissue damage due to psoriasis was measured through immunofluorescence.

## C[C@@H]1C[C@H]2[C@@H]3CCC4=CC(=O)C=C[C@]4(C)[C@@]3(F)[C@@H](O)C[C@]2(C)[C@@]1(O)C(=O)CO [DEX, dexamethasone]
[1]
  thickness of the epithelial layer: decreased thickness
[2]
  expression level of filaggrin: increased
  expression level of keratin 1: increased
  expression level of keratin 14: increased
  expression level of loricrin: increased
